# Legend:
# Assay type in all cases: in vivo
# [1] = test system: barnyardgrass (Echinochloa crus-galli); assay: Test B pre-/postemergence plant response
# Method in brief: (§1)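 Evaluation is visual, about 10 days after application, rating injury from 0 (none) to 100 (complete control) relative to untreated controls. Application was a preemergence soil spray on seeded pots or a postemergence spray on one- to two-leaf plants.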
# corn (Zea mays) = assay: Test B pre-/postemergence plant response
# Method in brief: as §1
# [2] = test system: giant foxtail (Setaria faberii); assay: Test B pre-/postemergence plant response
# Method in brief: as §1
# [3] = test system: pigweed (Amaranthus retroflexus); assay: Test B pre-/postemergence plant response
# Method in brief: as §1
# [4] = test system: wheat (Triticum aestivum); assay: Test B pre-/postemergence plant response
# Method in brief: as §1
# [5] = test system: barnyardgrass (Echinochloa crus-galli); assay: Test D pre-/postemergence plant response
# Method in brief: (§2)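 Seeds were planted in a loam and sand blend and sprayed preemergence. In parallel, seedlings grown in peat moss/vermiculite medium were sprayed postemergence at 2 to 18 cm height. Both used a surfactant-containing non-phytotoxic solvent. Greenhouse ratings at 13 to 15 days used a 0–100 control scale.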
# [6] = test system: blackgrass (Alopecurus myosuroides); assay: Test D pre-/postemergence plant response
# Method in brief: as §2
# [7] = test system: giant foxtail (Setaria faberii); assay: Test D pre-/postemergence plant response
# Method in brief: as §2
# [8] = test system: johnsongrass (Sorghum halepense); assay: Test D pre-/postemergence plant response
# Method in brief: as §2
# [9] = test system: large (Lg) crabgrass (Digitaria sanguinalis); assay: Test D pre-/postemergence plant response
# Method in brief: as §2
# [10] = test system: morningglory (Ipomoea coccinea); assay: Test D pre-/postemergence plant response
# Method in brief: as §2
# [11] = test system: pigweed (Amaranthus retroflexus); assay: Test D pre-/postemergence plant response
# Method in brief: as §2
# [12] = test system: ragweed (common ragweed, Ambrosia elatior); assay: Test D pre-/postemergence plant response
# Method in brief: as §2
# soybean (Glycine max) = assay: Test D pre-/postemergence plant response
# Method in brief: as §2
# [13] = test system: waterhemp (common waterhemp, Amaranthus rudis); assay: Test D pre-/postemergence plant response
# Method in brief: as §2
# [14] = test system: yellow nutsedge (Cyperus esculentus); assay: Test D pre-/postemergence plant response
# Method in brief: as §2
# [15] = 31 g ai/ha, Preemergence, 0 to 100 scale where 0 is no effect and 100 is complete control
# [16] = 125 g ai/ha, postemergence, 0 to 100 scale, 0 no effect, 100 complete control
# [17] = Postemergence, 31 g ai/ha, 0 to 100 scale (0 no effect, 100 complete control)
# [18] = Preemergence, 125 g ai/ha, 0 to 100 scale (0 no effect, 100 complete control)
# [19] = Postemergence, 16 g ai/ha, scale 0 to 100 (0 no effect, 100 complete control)
# [20] = Postemergence, 31 g ai/ha, scale 0 to 100 (0 no effect, 100 complete control)
# [21] = Postemergence, 62 g ai/ha, scale 0 to 100, 0 no effect, 100 complete control
# [22] = Postemergence, 125 g ai/ha, scale 0 to 100, 0 no effect, 100 complete control
# [23] = Preemergence, 8 g ai/ha, scale 0 to 100 (0 no effect, 100 complete control)
# [24] = Preemergence, 16 g ai/ha, scale 0 to 100 (0 no effect, 100 complete control)
# [25] = Preemergence, 31 g ai/ha, scale 0 to 100 (0 no effect, 100 complete control)
# [26] = Preemergence, 62 g ai/ha, scale 0 to 100 (0 no effect, 100 complete control)
compound,measurement,setting,value
FC(F)(Cl)c1cc(-c2ccccc2Oc2ncc(Cl)cn2)no1 [Compound 143],"Plant response rating, Barnyardgrass",[1]; [15],20
same,"Plant response rating, Barnyardgrass",[1]; [16],90
same,"Plant response rating, Barnyardgrass",[1]; [17],10
same,Barnyardgrass plant response rating,[1]; [18],90
same,"Plant response rating, Corn",corn (Zea mays); [16],30
same,"Plant response rating, Corn",corn (Zea mays); [17],40
same,"Plant response rating, Foxtail, Giant",[2]; [15],70
same,"Plant response rating, Foxtail, Giant",[2]; [16],80
same,"Plant response rating, Foxtail, Giant",[2]; [17],10
same,"Foxtail, Giant plant response rating",[2]; [18],100
same,"Plant response rating, Pigweed",[3]; [15],90
same,"Plant response rating, Pigweed",[3]; [16],100
same,"Plant response rating, Pigweed",[3]; [17],90
same,Pigweed plant response rating,[3]; [18],100
same,"Plant response rating, Wheat",[4]; [16],30
same,"Plant response rating, Wheat",[4]; [17],20
same,Barnyardgrass plant response rating,[5]; [19],5
same,Barnyardgrass plant response rating,[5]; [20],5
same,"Plant response rating, Barnyardgrass",[5]; [21],10
same,"Plant response rating, Barnyardgrass",[5]; [22],65
same,"Plant response rating, Barnyardgrass",[5]; [23],5
same,"Plant response rating, Barnyardgrass",[5]; [24],20
same,"Plant response rating, Barnyardgrass",[5]; [25],70
same,"Plant response rating, Barnyardgrass",[5]; [26],98
same,Blackgrass plant response rating,[6]; [19],10
same,Blackgrass plant response rating,[6]; [20],10
same,"Plant response rating, Blackgrass",[6]; [21],20
same,"Plant response rating, Blackgrass",[6]; [22],30
same,"Plant response rating, Blackgrass",[6]; [23],0
same,"Plant response rating, Blackgrass",[6]; [24],10
same,"Plant response rating, Blackgrass",[6]; [25],15
same,"Plant response rating, Blackgrass",[6]; [26],90
same,"Foxtail, Giant plant response rating",[7]; [19],5
same,"Foxtail, Giant plant response rating",[7]; [20],10
same,"Plant response rating, Foxtail, Giant",[7]; [21],10
same,"Plant response rating, Foxtail, Giant",[7]; [22],50
same,"Plant response rating, Foxtail, Giant",[7]; [23],40
same,"Plant response rating, Foxtail, Giant",[7]; [24],85
same,"Plant response rating, Foxtail, Giant",[7]; [25],100
same,"Plant response rating, Foxtail, Giant",[7]; [26],100
same,Johnsongrass plant response rating,[8]; [20],5
same,"Plant response rating, Johnsongrass",[8]; [21],30
same,"Plant response rating, Johnsongrass",[8]; [22],30
same,"Plant response rating, Johnsongrass",[8]; [23],35
same,"Plant response rating, Johnsongrass",[8]; [24],15
same,"Plant response rating, Johnsongrass",[8]; [25],60
same,"Plant response rating, Johnsongrass",[8]; [26],80
same,"Crabgrass, Large plant response rating",[9]; [19],10
same,"Crabgrass, Large plant response rating",[9]; [20],10
same,"Plant response rating, Crabgrass, Large",[9]; [21],15
same,"Plant response rating, Crabgrass, Large",[9]; [22],35
same,"Plant response rating, Crabgrass, Large",[9]; [23],60
same,"Plant response rating, Crabgrass, Large",[9]; [24],98
same,"Plant response rating, Crabgrass, Large",[9]; [25],100
same,"Plant response rating, Crabgrass, Large",[9]; [26],100
same,"Plant response rating, Morningglory",[10]; [21],90
same,"Plant response rating, Morningglory",[10]; [22],100
same,"Plant response rating, Morningglory",[10]; [23],0
same,"Plant response rating, Morningglory",[10]; [24],10
same,"Plant response rating, Morningglory",[10]; [25],35
same,"Plant response rating, Morningglory",[10]; [26],55
same,Pigweed plant response rating,[11]; [20],90
same,"Plant response rating, Pigweed",[11]; [21],100
same,"Plant response rating, Pigweed",[11]; [22],100
same,"Plant response rating, Pigweed",[11]; [23],90
same,"Plant response rating, Pigweed",[11]; [24],100
same,"Plant response rating, Pigweed",[11]; [25],100
same,"Plant response rating, Pigweed",[11]; [26],100
same,Ragweed plant response rating,[12]; [20],5
same,"Plant response rating, Ragweed",[12]; [21],10
same,"Plant response rating, Ragweed",[12]; [22],30
same,"Plant response rating, Ragweed",[12]; [23],0
same,"Plant response rating, Ragweed",[12]; [24],0
same,"Plant response rating, Ragweed",[12]; [25],30
same,"Plant response rating, Ragweed",[12]; [26],40
same,Soybean plant response rating,soybean (Glycine max); [20],30
same,"Plant response rating, Soybean",soybean (Glycine max); [21],60
same,"Plant response rating, Soybean",soybean (Glycine max); [22],60
same,"Plant response rating, Soybean",soybean (Glycine max); [23],0
same,"Plant response rating, Soybean",soybean (Glycine max); [24],5
same,"Plant response rating, Soybean",soybean (Glycine max); [25],10
same,"Plant response rating, Soybean",soybean (Glycine max); [26],25
same,Waterhemp plant response rating,[13]; [20],100
same,"Plant response rating, Waterhemp",[13]; [21],100
same,"Plant response rating, Waterhemp",[13]; [22],100
same,"Plant response rating, Waterhemp",[13]; [23],95
same,"Plant response rating, Waterhemp",[13]; [24],100
same,"Plant response rating, Waterhemp",[13]; [25],98
same,"Plant response rating, Waterhemp",[13]; [26],100
same,"Nutsedge, Yellow plant response rating",[14]; [20],5
same,"Plant response rating, Nutsedge, Yellow",[14]; [21],5
same,"Plant response rating, Nutsedge, Yellow",[14]; [22],5
same,"Plant response rating, Nutsedge, Yellow",[14]; [23],0
same,"Plant response rating, Nutsedge, Yellow",[14]; [24],0
same,"Plant response rating, Nutsedge, Yellow",[14]; [25],0
same,"Plant response rating, Nutsedge, Yellow",[14]; [26],5
